# Like-named read-outs stand apart in the source and are kept apart here.
# Experiments:
# [1] = test system: Two-Spotted Spider Mite; assay: Biological Method D: Foliar Insecticidal Activity Test, mite test; type: in vivo, Tetranychus urticae; set-up: key to LC50 TSM: I = inactive at concentration listed; settings: Method D foliar test; Two-Spotted Spider Mite
# Description: (§1) Biological Method D: Foliar Insecticidal Activity Test
# (§2) In evaluating the foliar insecticidal activity of the compounds of this invention against insects and mites, the following test procedures were employed.
# (§3) Not all compounds were tested at each of the several concentrations stated above. Test concentrations of a compound were selected as those most likely to differentiate dose response of a particular compound toward a particular test insect.
# (§4) Initial evaluations were made on one or more of the following pests:
# For the mite test, infested bean (Phaseolus limensis var. Woods Prolific) leaf discs [3.18 cm (1.25") in diameter] containing about 50 mites were placed in a Petri dish lid on a moistened piece of cotton. The leaves were then sprayed to thorough wetness with the test solution using a rotating turntable, held for twenty-four hours and then the percentage killed was determined.
# (§5) The mortalities obtained in this manner were plotted on logarithmic probability paper.
# (§6) The rotating turntable consists of a fixed, continuously operating spray nozzle under which targets are rotated at a fixed speed and distance. If the target is a Petri dish (such as for the bean beetle, armyworm, mite, or aphid tests), the distance from the nozzle is 38.1 cm (15 inches). If the target is a Mason jar (such as for the boll weevil test), the distance from the nozzle is 17.8 cm (7 inches). The nozzle is located 8 inches from the rotating shaft. The targets on individual platforms revolve around the shaft at 1 revolution per 20 seconds but only a brief portion of this time occurs in the spray path. Targets pass only once under the nozzle and then are removed to drying hoods.
# (§7) The nozzle used is a 1/4 JCO Spraying Systems (Wheaton, Illinois) air atomizing nozzle equipped with a No. 2850 fluid cap and a No. 70 air cap. At the 68.95 x 10³ Pa gauge (10 psig) air pressure used and with liquid siphon feed, 1.89 ℓ/hr [0.5 GPH (gallons per hour)] are delivered in a round spray pattern with a 21 degree spray angle. Targets are misted with spray droplets to the point that the droplets coalesce to form a uniform thin film insufficient to drown test organisms.
# [2] = test system: Mexican Bean Beetle; assay: Biological Method D: Foliar Insecticidal Activity Test, Mexican Bean Beetle test; type: in vivo, Epilachna varivestis; set-up: key to LC50 BB 96 hrs / LC50 BB 48 hrs.: I = inactive at concentration listed; settings: Method D foliar test, Mexican Bean Beetle; for LC50: Epilachna varivestis
# Description: as §1, §2, §3, §4
# (§8) For the Mexican Bean Beetle and Southern armyworm tests, individual lima bean (Phaseolus limeniss var. Woods' Prolific) leaves were placed on moistened pieces of filter paper in Petri dishes. The leaves were then sprayed with the test solution using a rotating turntable and allowed to dry. The dishes were then infested with 10 third instar larvae of either the Mexican Been Beetle or the Southern Armyworm. The dishes were then covered. Percent mortality was determined for each species and spray concentration at 48 and 96 hours after treatment.
# as §5, §6, §7
# [3] = test system: Boll Weevil; assay: Biological Method D: Foliar Insecticidal Activity Test, boll weevil test; type: in vivo, Anthonomous grandis; settings: Method D foliar test, Boll Weevil
# Description: as §1, §2, §3, §4
# (§9) For the boll weevil test, 10 adult weevils were placed in a 0.24 ℓ (0.5 pint) glass Mason jar containing a small cube of apple. The weevils were confined to the jar by fiberglass screen mesh secured by a screw-type rim cap. The jars were then sprayed with the test solution using a rotating turntable; directing the spray through the mesh into the jar. The percentage killed was determined after forty-eight and ninety six hours.
# as §5, §6, §7
# [4] = test system: Green Peach Aphid; assay: Biological Method D: Foliar Insecticidal Activity Test, aphid test; type: in vivo, Myzus persicae; set-up: key: I = inactive at concentration listed
# Description: as §1, §2, §3, §4
# For the aphid test, infested broccoli (Brassica oleracea italica var. DiCicco) leaves containing about 50 aphids were placed in a Petri dish lid on a moistened piece of cotton. The leaves were then sprayed to thorough wetness with the test solution using a rotating turntable, held for twenty-four hours and then the percentage killed was determined.
# as §5, §6, §7
# [5] = test system: Southern Armyworm; assay: Biological Method D: Foliar Insecticidal Activity Test, Southern Armyworm test; type: in vivo, Spodoptera eridania; set-up: key: I = inactive at concentration listed
# Description: as §1, §2, §3, §4, §8, §5, §6, §7
# [6] = test system: Boll Weevil; assay: Biological Method D: Foliar Insecticidal Activity Test, boll weevil test; type: in vivo, Anthonomous grandis; set-up: key: I = inactive at concentration listed
# Description: as §1, §2, §3, §4, §9, §5, §6, §7
# [7] = test system: southern corn rootworm, Diabrotica undecimpunctata howardi; assay: Biological Method A: Corn Rootworm Screening Test (treated non-aggressive soil); settings: soil concentration giving 90% mortality, 10 days at 27°C
# [8] = test system: southern corn rootworm, Diabrotica undecimpunctata howardi; settings: at-planting soil application
# [9] = test system: Southern Armyworm; assay: Biological Method D: Foliar Insecticidal Activity Test, Southern Armyworm test; type: in vivo, Spodoptera eridania; settings: Spodoptera eridania, Method D foliar test, Southern Armyworm
# Description: as §1, §2, §3, §4, §8, §5, §6, §7
# [10] = 48 hrs, read-out: LC50 BB 48 hrs.
# [11] = 96 hrs, read-out: LC50 BB 96 hrs
# [12] = 96 hrs, read-out: LC50 AW 96 hrs
# [13] = 48 hrs, read-out: LC50 AW 48 hrs
SMILES,LC50 TSM [1],"LC50 [2, 10] [µg/mL]","LC50 [2, 11] [µg/mL]",LC50 BW 96 hrs [3] [ppm],LC50 GPA [4],LC50 AW 48 hrs [5],LC50 AW 96 hrs [5],LC50 BW 48 hrs [6],primary nonagressive Method A crw LC90 [7] [ppm],LC50 BB 48 hrs. ([2]; 48 hrs),LC50 BW 96 hrs [6],secondary aggressive Method C crw LC50 ([8]; rated 17 days post-infestation) [kg/ha],secondary aggressive Method C crw LC50 ([8]; value in brackets) [lb/acre],LC50 BB 96 hrs ([2]; 96 hrs),"LC50 [9, 12] [µg/mL]",LC50 BW 48 hrs [3] [ppm],"LC50 [9, 13] [µg/mL]"
CCCOP(=S)(NNP(=S)(OCC)SCC)OCCC (stereo not drawn) [Compound 27],I,150,150,740,I,I,I,I,5.8,,,,,,,,
CCCOP(=S)(NNP(=S)(OCC)OCC)OCC(C)(C)C (stereo not drawn) [Compound 34],I,,52,,I,I,I,I,1.1,I,I,0.65,0.58,,,,
CCCOP(=S)(NNP(=S)(OCCC)OCCC)OCC (stereo not drawn) [Compound 28],I,62,50,,I,I,I,I,1.1,,I,1.06,0.95,,,,
CCOP(=O)(NNP(=S)(OCC)OCC(C)(C)C)SC(C)CC (stereo not drawn) [Compound 52],I,500,150,,I,I,I,I,1.1,,I,0.78,0.70,,,,
CCOP(=S)(NNP(=S)(OC)OC)OCC(C)(C)C (stereo not drawn) [Compound 44],I,,,380,I,I,,,0.37,I,,0.56,0.50,I,500,380,
"CCOP(=S)(NNP(=S)(OCC(C)(C)C)OCC(C)(C)C)OCC(C)(C)C (stereo not drawn) [Compound 57, N-(O,O-dineopentylthiophosphoryl) N′-(O-ethyl O-neopentylthiophosphoryl) hydrazine]",I,,,,I,I,I,I,1.1,I,I,0.5,0.45,I,,,
CCOP(=S)(NNP(=S)(OCC)OC(C)(C(F)(F)F)C(F)(F)F)OCC(C)(C)C (stereo not drawn) [Compound 48],I,,,,I,,,I,0.40,I,I,0.63,0.56,I,150,,300
CCCOP(=S)(NNP(=O)(OCC)SC(C)CC)OCC (stereo not drawn) [Compound 54],I,,,,I,,I,I,1.1,I,,,,I,,,52
"CCOP(=S)(NNP(=S)(OCC)OC(C)CC)OCC(C)(C)C (stereo not drawn) [Compound 47, N-(O-ethyl O-secbutylthiophosphoryl) N′-(O-ethyl O-neopentylthiophosphoryl) hydrazine]",I,,45,,I,I,I,I,0.09,I,I,0.38,0.34,,,,
"CCCOP(=S)(NNP(=S)(OCC)OCC(C)(C)C)OCC (stereo not drawn) [Compound 45, N-(O-ethyl O-propylthiophosphoryl) N′-(O-ethyl O-neopentylthiophosphoryl) hydrazine]",I,,,150,I,I,,I,0.39,I,,0.37,0.33,I,150,,
CCOP(=O)(NNP(=S)(OCC)OC(C)C)SC(C)CC (stereo not drawn) [Compound 55],I,,17,70,I,I,I,,1.1,I,,,,,,740,
